One test addresses human OX2 receptor (Homo sapiens (Human), UniProt O43614). The experiment in a line: Measurement of orexin type 2 receptor agonist activity (Experimental Example 2-2, FDSS uCELL, calcium indicator). Type of test: cell-based. Particulars: CHO cells expressing human OX2 receptor; for EC50: Fluo-4 AM; for Emax: CHO, DMSO = 0%, reference OX-A at 10 nM. As for the experimental part:
CHO cells forcibly expressing human OX2 receptor were seeded in each well of 384 well black transparent bottom plate (BD Falcon) at 7,500 cells/well, and cultured for one day in a 5% CO2 incubator at 37° C. […] The plate was stood for 30 min in a 5% CO2 incubator at 37° C., and further stood at room temperature for 30 min. A test compound prepared by diluting with assay buffer B (HESS, 20 mM HEPES, 0.1% BSA) was added at 10 μL/well, and the fluorescence value was measured by FDSSμCELL (Hamamatsu Photonics K.K.) every one sec for 1 min, and thereafter every two sec for 1 min sec.

In test [1] the target is human orexin type 2 receptor (hOX2R) (Homo sapiens (Human), UniProt O43614). The test is described as follows: Measurement of orexin type 2 receptor agonist activity (Experimental Example 2-1, FLIPR TETRA, intracellular Ca2+). Type of test: cell-based. Conditions: CHO dhfr- cells expressing hOX2R; for Emax: read-out: Emax (%); for Emax at 30 µM: value at 30 uM concentration, orexin B as full agonist = 100%.
Chain of human orexin type 2 receptor (hOX2R) (O43614 whole entry): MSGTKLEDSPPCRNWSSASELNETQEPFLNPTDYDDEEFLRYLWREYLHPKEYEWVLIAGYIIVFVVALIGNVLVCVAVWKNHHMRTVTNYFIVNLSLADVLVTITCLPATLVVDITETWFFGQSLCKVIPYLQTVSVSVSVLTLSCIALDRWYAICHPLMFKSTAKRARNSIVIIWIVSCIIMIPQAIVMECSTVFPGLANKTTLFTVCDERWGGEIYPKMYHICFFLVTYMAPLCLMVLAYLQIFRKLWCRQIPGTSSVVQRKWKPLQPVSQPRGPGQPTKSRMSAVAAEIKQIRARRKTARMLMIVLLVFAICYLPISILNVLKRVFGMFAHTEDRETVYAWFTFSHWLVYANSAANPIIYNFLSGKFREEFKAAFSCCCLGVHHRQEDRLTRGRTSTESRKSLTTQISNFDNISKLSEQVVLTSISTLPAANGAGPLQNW

Where [2] appears, read: agonist activity, 10 nM human orexin B = 100%.

Chain of human OX2 receptor (O43614 whole entry): as above

On to `COC(=O)N1CCC[C@H](NS(C)(=O)=O)[C@@H]1CO[C@H]1CC[C@@H](c2ccccc2O)CC1` (relative stereo) [Example 347, methyl cis-2-(((cis-4-(2-hydroxyphenyl)cyclohexyl)oxy)-methyl)-3-((methylsulfonyl)amino)piperidine-1-carboxylate], for which, at human OX2 receptor, the half-maximal effective concentration (EC50) – broadly, the concentration needed to bring the measured effect to its halfway point – was determined as 0.26 µM and the Emax (usually the greatest response seen or fitted, relative to the assay's reference) is 94%.

Turning to `CC(C)OC(=O)N1CCC[C@H](NS(=O)(=O)C2CC2)[C@@H]1COC1CCN(c2ncccn2)CC1` (relative stereo) [Example 356, isopropyl cis-3-((cyclopropylsulfonyl)amino)-2-(((1-(pyrimidin-2-yl)piperidin-4-yl)oxy)methyl)piperidine-1-carboxylate], at human OX2 receptor, the EC50 worked out at 0.021 µM and the Emax was 98%.

As for `CNC(=O)N1CCC[C@H](NS(=O)(=O)C2CC2)[C@@H]1CO[C@H]1CC[C@@H](c2ccccc2)CC1` (relative stereo) [Example 359, cis-3-((cyclopropylsulfonyl)amino)-N-methyl-2-(((cis-4-phenylcyclohexyl)oxy)methyl)-piperidine-1-carboxamide], at human OX2 receptor, the EC50 worked out at 0.0011 µM and the Emax came out at 97%.

Take `O=S(=O)(N[C@H]1CCCN[C@H]1CO[C@H]1CC[C@@H](c2ccccc2)CC1)C1CC1` (relative stereo) [Example 353, N-(cis-2-(((cis-4-phenylcyclohexyl)oxy)methyl)-piperidin-3-yl)cyclopropanesulfonamide]: on human OX2 receptor, the concentration giving a half-maximal response (EC50) came to 1.3 µM and the Emax is 100%.

With `CCNC(=O)N1CCC[C@H](NS(C)(=O)=O)[C@@H]1CO[C@H]1CCC[C@@H]1Oc1ccccc1` [Example 350, cis-N-ethyl-3-((methylsulfonyl)amino)-2-((((1S,2S)-2-phenoxycyclopentyl)oxy)methyl)-piperidine-1-carboxamide], at human OX2 receptor, the 50% effective concentration (EC50) amounted to 1.6 µM and the Emax came out at 116%.

On to `CC(=O)N1CCC[C@H](NS(=O)(=O)C2CC2)[C@@H]1CO[C@H]1CC[C@@H](c2ccccc2)CC1` (relative stereo) [Example 354, N-(cis-1-acetyl-2-(((cis-4-phenylcyclohexyl)oxy)methyl)-piperidin-3-yl)cyclopropanesulfonamide], for which, at human OX2 receptor, the 50% effective concentration (EC50) was 0.051 µM and the Emax turned out to be 104%.

For `COc1cccc([C@H]2CC[C@@H](OC[C@H]3[C@@H](NS(C)(=O)=O)CCCN3C(C)=O)CC2)c1` (relative stereo) [Example 271, N-(cis-1-acetyl-2-(((cis-4-(3-methoxyphenyl)cyclohexyl)oxy)methyl)piperidin-3-yl)methanesulfonamide], in test [1] (FLIPR TETRA, Fluo-4AM), the half-maximal effective concentration (EC50) was determined as 0.65 µM and the Emax worked out at 104%.

As to `CCC(=O)N1CCC[C@H](NS(C)(=O)=O)[C@@H]1CO[C@H]1CC[C@@H](c2ccccc2)CC1` [Example 182, N-((2R,3S)-2-(((cis-4-phenylcyclohexyl)oxy)methyl)-1-propionylpiperidin-3-yl)methanesulfonamide], in test [1] (FLIPR TETRA, Fluo-4AM), the 50% effective concentration (EC50) is 0.0023 µM and the maximal effect (Emax) came out at 92%.

As to `CCNC(=O)N1CCC[C@H](NS(C)(=O)=O)[C@@H]1CO[C@H]1CC[C@@H](c2ccccc2C(F)(F)F)CC1` (relative stereo) [Example 249, cis-N-ethyl-3-((methylsulfonyl)amino)-2-(((cis-4-(2-(trifluoromethyl)phenyl)cyclohexyl)oxy)methyl)piperidine-1-carboxamide], in test [1] (FLIPR TETRA, Fluo-4AM), the concentration giving a half-maximal response (EC50) stood at 0.00061 µM and the Emax was determined as 99%.

In test [1] (setting [2]), `CCNS(=O)(=O)N[C@H]1CCCN(C(C)=O)[C@H]1CO[C@H]1CC[C@@H](C(C)C)CC1` (relative stereo) [Example 79, N-(cis-1-acetyl-2-(((cis-4-isopropylcyclohexyl)oxy)methyl)piperidin-3-yl)-N′-ethylsulfuric diamide] returned a concentration giving a half-maximal response (EC50) of 0.33 µM. Also, in test [1], the Emax at 30 µM was 85%.

Regarding `CS(=O)(=O)N[C@H]1CCCN(C(=O)[C@H]2C[C@@H]2F)[C@H]1COC1CCN(c2ccccc2F)CC1` [Example 222, N-(cis-1-(((1R,2S)-2-fluorocyclopropyl)carbonyl)-2-(((1-(2-fluorophenyl)piperidin-4-yl)oxy)methyl)piperidin-3-yl)methanesulfonamide], in test [1] (FLIPR TETRA, Fluo-4AM), the concentration giving a half-maximal response (EC50) worked out at 2.1 µM and the Emax worked out at 102%.

Take `CC(=O)C(=O)N1CCC[C@H](NS(C)(=O)=O)[C@@H]1CO[C@H]1CC[C@@H](c2ccccc2)CC1` (relative stereo) [Example 177, N-(cis-2-(((cis-4-phenylcyclohexyl)oxy)methyl)-1-pyruvoylpiperidin-3-yl)methanesulfonamide]: in test [1] (FLIPR TETRA, Fluo-4AM), a half-maximal response (EC50) required 0.19 µM and the maximal response (Emax) came out at 96%.

With `CS(=O)(=O)N[C@H]1CCCN(C(=O)C2CC2)[C@H]1COC1CCN(c2ccccc2F)CC1` [Example 246, N-((2R,3S)-1-(cyclopropylcarbonyl)-2-(((1-(2-fluorophenyl)piperidin-4-yl)oxy)methyl)piperidin-3-yl)methanesulfonamide], in test [1] (FLIPR TETRA, Fluo-4AM), the EC50 stood at 0.73 µM and the Emax was 113%.

Consider `CC(C)[C@H]1CC[C@@H](OC[C@H]2[C@@H](NS(C)(=O)=O)CCCN2C(=O)N2CCCC2)CC1` (relative stereo) [Example 39, N-(cis-2-(((cis-4-isopropylcyclohexyl)oxy)methyl)-1-(pyrrolidin-1-ylcarbonyl)piperidin-3-yl)methanesulfonamide], for which, in test [1] (setting [2]), the EC50 worked out at 0.94 µM. The molecule also gave a maximum response (Emax) at 30 µM in test [1] of 93%.

Turning to `COC(=O)N1CCC[C@H](NS(C)(=O)=O)[C@@H]1CO[C@H]1CC[C@@H](c2c(F)cccc2F)CC1` [Example 215, methyl (2R,3S)-2-(((cis-4-(2,6-difluorophenyl)cyclohexyl)oxy)methyl)-3-((methylsulfonyl)amino)piperidine-1-carboxylate], in test [1] (FLIPR TETRA, Fluo-4AM), the concentration for a half-maximal effect (EC50) amounted to 0.0025 µM and the maximal response (Emax) stood at 105%.

As to `CC(=O)N1CCC[C@H](NS(C)(=O)=O)[C@@H]1CO[C@H]1CC[C@@H](c2ccccc2F)CC1` [Example 240, N-((2R,3S)-1-acetyl-2-(((cis-4-(2-fluorophenyl)cyclohexyl)oxy)methyl)piperidin-3-yl)methanesulfonamide], in test [1] (FLIPR TETRA, Fluo-4AM), the EC50 was 0.024 µM and the maximum response (Emax) was 107%.

In the case of `CC(=O)N1CCC[C@H](NS(C)(=O)=O)[C@@H]1COC1CCC(F)(c2cccc(F)c2)CC1` (relative stereo) [Example 216, N-(cis-1-acetyl-2-(((4-fluoro-4-(3-fluorophenyl)cyclohexyl)oxy)methyl)piperidin-3-yl)methanesulfonamide], in test [1] (FLIPR TETRA, Fluo-4AM), the half-maximal effective concentration (EC50) turned out to be 0.21 µM and the maximal response (Emax) is 105%.

For the molecule `[2H]C([2H])([2H])OC(=O)N1CCC[C@H](NS(C)(=O)=O)[C@@H]1CO[C@H]1CC[C@@H](c2ccccc2)CC1` [Example 191, methyl-d3 (2R,3S)-3-((methylsulfonyl)amino)-2-(((cis-4-phenylcyclohexyl)oxy)methyl)piperidine-1-carboxylate], in test [1] (FLIPR TETRA, Fluo-4AM), the EC50 was found to be 0.0029 µM and the Emax amounted to 107%.

Consider `CCNC(=O)N1CCC[C@H](NS(C)(=O)=O)[C@@H]1COC1CCC(OC)CC1` (relative stereo) [Example 126, cis-N-ethyl-2-(((4-methoxycyclohexyl)oxy)methyl)-3-((methylsulfonyl)amino)piperidine-1-carboxamide], for which, in test [1] (FLIPR TETRA, Fluo-4AM), the EC50 is 2.6 µM and the Emax was determined as 85%.

`CCNC(=O)N1CCC[C@H](NS(C)(=O)=O)[C@@H]1CO[C@H]1CC[C@@H](C(F)(F)F)CC1` (relative stereo) [Example 107, cis-N-ethyl-3-((methylsulfonyl)amino)-2-(((cis-4-(trifluoromethyl)cyclohexyl)oxy)methyl)piperidine-1-carboxamide] returned a concentration giving a half-maximal response (EC50) in test [1] (setting [2]) of 0.12 µM. Besides, in test [1], the maximal effect (Emax) at 30 µM came to 75%.

Regarding `CS(=O)(=O)N[C@H]1CCCN(C(=O)C2CCC2)[C@H]1COC1CCN(c2ccccc2F)CC1` (relative stereo) [Example 223, N-(cis-1-(cyclobutylcarbonyl)-2-(((1-(2-fluorophenyl)piperidin-4-yl)oxy)methyl)piperidin-3-yl)methanesulfonamide], in test [1] (FLIPR TETRA, Fluo-4AM), the concentration for a half-maximal effect (EC50) worked out at 1.1 µM and the maximal response (Emax) turned out to be 110%.

For the molecule `COC(=O)N1CCC[C@H](NS(C)(=O)=O)[C@@H]1CO[C@H]1CC[C@@H](c2ccccc2F)CC1` [Example 267, methyl (2R,3S)-2-(((cis-4-(2-fluorophenyl)cyclohexyl)oxy)methyl)-3-((methylsulfonyl)amino)piperidine-1-carboxylate], in test [1] (FLIPR TETRA, Fluo-4AM), it took 0.0034 µM to reach a half-maximal effect (EC50) and the Emax is 94%.

`COC(=O)N1CCC[C@H](NS(C)(=O)=O)[C@@H]1CO[C@H]1CC[C@]2(CC1)OCc1ccccc12` [Example 275, methyl cis-3-((methylsulfonyl)amino)-2-(((1s,4′s)-3H-spiro[2-benzofuran-1,1′-cyclohexan]-4′-yloxy)methyl)piperidine-1-carboxylate]: in test [1] (FLIPR TETRA, Fluo-4AM), the half-maximal effective concentration (EC50) came out at 3.1 µM and the Emax was found to be 87%.

Consider `CC(C)[C@H]1CC[C@@H](OC[C@H]2[C@@H](NS(C)(=O)=O)CCCN2C(=O)CC(C)(C)O)CC1` (relative stereo) [Example 73, N-(cis-1-(3-hydroxy-3-methylbutanoyl)-2-(((cis-4-isopropylcyclohexyl)oxy)methyl)piperidin-3-yl)methanesulfonamide], for which the midpoint of the response in test [1] (setting [2]), the EC50, lay at 0.56 µM. The molecule also returned an Emax at 30 µM in test [1] of 92%.

Values taken from patent US10287305B2, “Substituted piperidine compound and use thereof” (Takeda Pharmaceutical Company Limited, priority 2016, dated 2019).
